From US10093656B2, “Fused-ring or tricyclic aryl pyrimidine compound used as kinase inhibitor” (NANJING SANHOME PHARMACEUTICAL CO., LTD, priority 2015, dated 2018)
pIC50: −log10 of the molar value.

Key:
EGFR d746-750/T790M = target: T1, EGFR d746-750/T790M (Homo sapiens, UniProt P00533, DEL746-750/T790M); assay: EGFR d746-750/T790M enzyme HTRF inhibition assay; assay type: biochemical; conditions: 40 μM ATP
T1 construct: purchased Carna Biosciences (Japan)
In short: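 0.025 nM enzyme with 1 μM biotin-TK1 peptide and 40 μM ATP, 60 min at 23° C; compound tested at 10 doses, 300 nM to 0.015 nM final. HTRF read (Eu-anti-TK1 antibody 2 nM, XL665 62.5 nM, 60 min at 23° C); IC50 from four-parameter fit of % inhibition.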

[1] = tested on: human skin squamous cell A431 xenograft (CDX); assay: Selectivity study in vivo, A431 xenograft (CDX) model; set-up: species or system BALB/c nude mice; conditions: Table 5 experiment, AZD9291 5 mg/kg
EGFR wild type = target: T2, EGFR wild type (Homo sapiens, UniProt P00533); assay: Wild-type EGFR enzyme HTRF inhibition assay; assay type: biochemical; conditions: 25 μM ATP, read-out: EGFR WT IC50
T2 construct: purchased Life technology (Madison, Wis.)
T2 sequence (P00533 25-1210): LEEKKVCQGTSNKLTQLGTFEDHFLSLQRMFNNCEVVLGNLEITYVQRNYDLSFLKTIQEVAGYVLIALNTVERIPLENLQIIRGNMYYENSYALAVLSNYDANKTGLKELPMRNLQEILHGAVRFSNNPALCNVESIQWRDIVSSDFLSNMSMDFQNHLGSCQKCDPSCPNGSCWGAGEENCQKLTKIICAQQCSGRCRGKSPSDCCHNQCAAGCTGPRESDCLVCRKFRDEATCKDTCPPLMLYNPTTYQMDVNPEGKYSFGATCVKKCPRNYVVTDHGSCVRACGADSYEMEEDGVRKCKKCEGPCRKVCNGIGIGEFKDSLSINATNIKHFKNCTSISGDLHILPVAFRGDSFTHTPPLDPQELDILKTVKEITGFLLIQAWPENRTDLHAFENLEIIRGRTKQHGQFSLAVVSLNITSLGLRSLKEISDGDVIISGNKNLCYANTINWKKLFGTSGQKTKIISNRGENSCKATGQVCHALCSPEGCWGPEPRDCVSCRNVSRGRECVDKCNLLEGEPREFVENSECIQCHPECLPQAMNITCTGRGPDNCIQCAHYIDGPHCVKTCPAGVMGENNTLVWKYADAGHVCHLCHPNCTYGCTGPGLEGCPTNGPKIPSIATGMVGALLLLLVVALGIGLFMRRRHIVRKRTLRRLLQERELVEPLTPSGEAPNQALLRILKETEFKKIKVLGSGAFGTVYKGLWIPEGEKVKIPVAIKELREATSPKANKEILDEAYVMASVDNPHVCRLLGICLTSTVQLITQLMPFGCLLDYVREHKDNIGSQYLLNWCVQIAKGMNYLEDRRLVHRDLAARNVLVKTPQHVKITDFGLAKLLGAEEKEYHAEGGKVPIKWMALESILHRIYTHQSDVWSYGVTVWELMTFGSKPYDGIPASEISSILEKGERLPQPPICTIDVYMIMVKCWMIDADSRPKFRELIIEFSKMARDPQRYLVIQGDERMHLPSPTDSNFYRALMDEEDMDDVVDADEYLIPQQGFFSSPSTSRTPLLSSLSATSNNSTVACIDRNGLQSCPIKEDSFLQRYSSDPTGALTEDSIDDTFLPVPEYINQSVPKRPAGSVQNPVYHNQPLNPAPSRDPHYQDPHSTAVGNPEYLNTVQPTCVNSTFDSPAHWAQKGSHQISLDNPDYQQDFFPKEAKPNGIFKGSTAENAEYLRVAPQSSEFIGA
In short: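 HTRF with 0.05 nM wild-type EGFR, 1 μM biotin-TK1 peptide, 25 μM ATP, 60 min at 23° C; detected with Eu-anti-TK1 antibody 2 nM and XL665 62.5 nM, 60 min at 23° C. Ten 3-fold doses, 300 nM to 0.015 nM final; IC50 by four-parameter fit of % inhibition.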

A431 cells EGFR WT = assay: A431 cell viability assay (Cell Titer-Glo, 6 days); assay type: cell-based, human
In short: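 A431 (EGFR WT) and NCI-H1975 (EGFR L858R/T790M) cells treated for 6 days at 37° C, in duplicate with 10 three-fold doses from 10 μM to 0.508 nM final. Viability read as CellTiter-Glo luminescence. IC50 from four-parameter fit of % inhibition.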

T1 sequence (P00533 with tags, fused parts or gaps DEL746-750/T790M limits assumed): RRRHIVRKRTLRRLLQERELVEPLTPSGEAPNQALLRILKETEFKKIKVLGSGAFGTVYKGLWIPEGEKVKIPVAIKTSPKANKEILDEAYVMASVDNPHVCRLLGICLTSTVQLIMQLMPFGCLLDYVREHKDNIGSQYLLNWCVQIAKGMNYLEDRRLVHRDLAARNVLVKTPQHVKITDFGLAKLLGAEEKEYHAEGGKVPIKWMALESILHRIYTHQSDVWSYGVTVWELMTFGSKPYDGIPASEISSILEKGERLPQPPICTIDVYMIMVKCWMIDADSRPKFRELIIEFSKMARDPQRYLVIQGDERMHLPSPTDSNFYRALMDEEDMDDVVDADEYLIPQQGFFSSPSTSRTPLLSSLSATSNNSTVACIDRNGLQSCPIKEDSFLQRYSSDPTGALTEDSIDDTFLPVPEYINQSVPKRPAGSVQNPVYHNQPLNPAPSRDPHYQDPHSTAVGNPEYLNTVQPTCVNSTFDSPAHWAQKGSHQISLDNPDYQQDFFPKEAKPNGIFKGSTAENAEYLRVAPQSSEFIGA

pIC50 (EGFR d746-750/T790M): 9.40 | pIC50 (EGFR wild type): 8.59 | pIC50 (A431 cells EGFR WT; Homo sapiens, A-431, 144 h, A431 cells, 6 days): 6.16
SMILES: C=CC(=O)Nc1cc(Nc2ncc(F)c(-c3c4n(c5cc(F)ccc35)CCOC4)n2)c(OC)cc1N(C)CCN(C)C [Embodiment 33, N-(2-((2-(Dimethylamino)ethyl)(methyl)amino)-5-((5-fluoro-4-(7-fluoro-3,4-dihydro-1H-[1,4]oxazino[4,3-a]indol-10-yl)pyrimidin-2-yl)amino)-4-methoxyphenyl)acrylamide]
Tumor Volume (mm^3) 4 days ([1]; day 4, oral once daily: 33, 34, 40, 42, 43 20 mg/kg): 202 mm^3 | Tumor Volume (mm^3) 11 days ([1]; day 11, oral once daily: 33, 34, 40, 42, 43 20 mg/kg): 428 mm^3 | Tumor Volume (mm^3) 18 days ([1]; day 18, oral once daily: 33, 34, 40, 42, 43 20 mg/kg): 930 mm^3 | A431:NCI-H1975 (ratio) (A431 cells EGFR WT; ratio of cell IC50 A431 to NCI-H1975): 7.7
